Test results as given in patent publication US9067977B2, “Peptides derivatized with A-B-C-D- and their therapeutical use” (Novo Nordisk A/S, priority 2007, dated 2015).
Starred links: 1 amine or outer side, 2 acyl side, 3 side chain; linkers in the order of their positions; H or OH if unused. Non-standard residues stand in square brackets, D forms with d. Residues, ends and D or L forms follow the SMILES beside them. Groups on a side chain read outwards from the residue. *: point of attachment. X1 = O=C(CCCCCCCCCCCCCCCc1nnn[nH]1)NS(=O)(=O)CCCC(=O)*; PEG12 = NCCOCCOCCOCCOCCOCCOCCOCCOCCOCCOCCOCCOCCC(=O)O; C20 diacid = O=C(O)CCCCCCCCCCCCCCCCCCC(=O)*; γGlu = O=C(O)[C@H](CCC(=O)[*:2])N[*:1]; Desaminohistidyl = O=C(CCc1c[nH]cn1)*; AEEA = NCCOCCOCC(=O)O; Aib = CC(C)(N)C(=O)O; Inp = O=C(O)C1CCNCC1; GABA = NCCCC(=O)O

Molecular target: human serum albumin (HSA) (Homo sapiens, UniProt P02768)
Test: Albumin binding affinity, competition scintillation proximity assay
Conditions: for EC50 at 20 h: human, biotinylated human serum albumin on streptavidin-SPA beads, pH 7.4
Description: Streptavidin-SPA beads (GE Healthcare RPNQ0009) were incubated with biotinylated HSA for 5 hours. The beads were washed with buffer to remove unbound HSA. […] After 20 hours of gentle rocking at room temperature the plates were centrifuged and counted on a TopCounter.

human serum albumin (HSA), sequence (P02768 25-609): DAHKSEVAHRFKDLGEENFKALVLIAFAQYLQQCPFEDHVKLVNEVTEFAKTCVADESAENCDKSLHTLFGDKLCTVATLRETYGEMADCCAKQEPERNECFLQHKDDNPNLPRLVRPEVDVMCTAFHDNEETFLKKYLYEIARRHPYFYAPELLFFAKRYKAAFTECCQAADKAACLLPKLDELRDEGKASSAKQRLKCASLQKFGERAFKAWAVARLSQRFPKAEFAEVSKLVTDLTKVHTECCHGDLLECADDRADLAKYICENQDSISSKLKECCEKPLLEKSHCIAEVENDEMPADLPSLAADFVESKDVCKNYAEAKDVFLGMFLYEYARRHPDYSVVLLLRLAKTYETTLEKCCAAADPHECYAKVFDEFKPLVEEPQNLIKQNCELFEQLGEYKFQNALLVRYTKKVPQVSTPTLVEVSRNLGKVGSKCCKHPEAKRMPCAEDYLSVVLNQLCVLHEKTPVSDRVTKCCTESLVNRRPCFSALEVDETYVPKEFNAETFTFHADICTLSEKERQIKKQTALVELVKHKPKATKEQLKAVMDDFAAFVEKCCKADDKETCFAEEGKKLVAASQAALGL

| SMILES | EC50 at 20 h | EC50 |
| --- | --- | --- |
| CC[C@H](C)[C@H](NC(=O)[C@H](Cc1ccccc1)NC(=O)[C@H](CCC(=O)O)NC(=O)[C@H](CCCNC(=N)N)NC(=O)[C@H](C)NC(=O)[C@H](C)NC(=O)[C@H](CCC(N)=O)NC(=O)[C@H](CCC(=O)O)NC(=O)[C@H](CCC(=O)O)NC(=O)[C@H](CC(C)C)NC(=O)[C@H](Cc1ccc(O)cc1)NC(=O)[C@H](CO)NC(=O)[C@H](CO)NC(=O)[C@@H](NC(=O)[C@H](CC(=O)O)NC(=O)[C@H](CO)NC(=O)[C@@H](NC(=O)[C@H](Cc1ccccc1)NC(=O)[C@@H](NC(=O)CNC(=O)[C@H](CCC(=O)O)NC(=O)[C@H](C)NC(=O)CCc1c[nH]cn1)[C@@H](C)O)[C@@H](C)O)C(C)C)C(=O)N[C@@H](C)C(=O)N[C@@H](Cc1c[nH]c2ccccc12)C(=O)N[C@@H](CC(C)C)C(=O)N[C@H](C(=O)N[C@@H](CCCNC(=N)N)C(=O)NCC(=O)N[C@@H](CCCNC(=N)N)C(=O)NCC(=O)N[C@@H](CCCCNC(=O)CC[C@H](NC(=O)COCCOCCNC(=O)CC[C@H](NC(=O)C1CCN(C(=O)CCCCCCCCCCCCCCCCCCC(=O)O)CC1)C(=O)O)C(=O)O)C(=O)O)C(C)C [Example 57, [DesaminoHis7,Glu22,Arg26,34]-GLP-1 (7-37)-Lys((S)-4-carboxy-4-(2-{2-[2-((S)-4-carboxy-4-{[1-(19-carboxynonadecanoyl)piperidine-4-carbonyl]amino}butyrylamino)ethoxy]ethoxy}acetylamino)butyryl) peptide] (Desaminohistidyl-AEGTFTSDVSSYLEEQAAREFIAWLVRGRGK([γGlu-AEEA-γGlu-Inp-C20 diacid])-OH) | 100 to 150 nM |  |
| CC[C@H](C)[C@H](NC(=O)[C@H](Cc1ccccc1)NC(=O)[C@H](CCC(=O)O)NC(=O)[C@H](CCCNC(=N)N)NC(=O)[C@H](C)NC(=O)[C@H](C)NC(=O)[C@H](CCC(N)=O)NC(=O)[C@H](CCC(=O)O)NC(=O)[C@H](CCC(=O)O)NC(=O)[C@H](CC(C)C)NC(=O)[C@H](Cc1ccc(O)cc1)NC(=O)[C@H](CO)NC(=O)[C@H](CO)NC(=O)[C@@H](NC(=O)[C@H](CC(=O)O)NC(=O)[C@H](CO)NC(=O)[C@@H](NC(=O)[C@H](Cc1ccccc1)NC(=O)[C@@H](NC(=O)CNC(=O)[C@H](CCC(=O)O)NC(=O)[C@H](C)NC(=O)CCc1c[nH]cn1)[C@@H](C)O)[C@@H](C)O)C(C)C)C(=O)N[C@@H](C)C(=O)N[C@@H](Cc1c[nH]c2ccccc12)C(=O)N[C@@H](CC(C)C)C(=O)N[C@H](C(=O)N[C@@H](CCCNC(=N)N)C(=O)NCC(=O)N[C@@H](CCCNC(=N)N)C(=O)NCC(=O)N[C@@H](CCCCNC(=O)COCCOCCNC(=O)COCCOCCNC(=O)CC[C@H](NC(=O)C1CCN(C(=O)CCCCCCCCCCCCCCCCCCC(=O)O)CC1)C(=O)O)C(=O)O)C(C)C [Example 7, [DesaminoHis7,Glu22,Arg26,Arg34]GLP-1-(7-37)-Lys(2-{2-[2-(2-{2-[2-((S)-4-Carboxy-4-{[1-(19-carboxynonadecanoyl)piperidine-4-carbonyl]amino}butyrylamino)ethoxy]ethoxy}acetylamino)ethoxy]ethoxy}acetyl)] (Desaminohistidyl-AEGTFTSDVSSYLEEQAAREFIAWLVRGRGK([AEEA-AEEA-γGlu-Inp-C20 diacid])-OH) |  | 300 to 800 nM |
| CC[C@H](C)[C@H](NC(=O)[C@H](Cc1ccccc1)NC(=O)[C@H](CCC(=O)O)NC(=O)[C@H](CCCNC(=N)N)NC(=O)[C@H](C)NC(=O)[C@H](C)NC(=O)[C@H](CCC(N)=O)NC(=O)CNC(=O)[C@H](CCC(=O)O)NC(=O)[C@H](CC(C)C)NC(=O)[C@H](Cc1ccc(O)cc1)NC(=O)[C@H](CO)NC(=O)[C@H](CO)NC(=O)[C@@H](NC(=O)[C@H](CC(=O)O)NC(=O)[C@H](CO)NC(=O)[C@@H](NC(=O)[C@H](Cc1ccccc1)NC(=O)[C@@H](NC(=O)CNC(=O)[C@H](CCC(=O)O)NC(=O)[C@H](C)NC(=O)CCc1c[nH]cn1)[C@@H](C)O)[C@@H](C)O)C(C)C)C(=O)N[C@@H](C)C(=O)N[C@@H](Cc1c[nH]c2ccccc12)C(=O)N[C@@H](CC(C)C)C(=O)N[C@H](C(=O)N[C@@H](CCCNC(=N)N)C(=O)NCC(=O)N[C@@H](CCCNC(=N)N)C(=O)N[C@@H](CCCCNC(=O)COCCOCCNC(=O)COCCOCCNC(=O)CC[C@H](NC(=O)C1CCN(C(=O)CCCCCCCCCCCCCCCCCCC(=O)O)CC1)C(=O)O)C(=O)O)C(C)C [Example 60, N-epsilon37-(2-{2-[2-(2-{2-[2-((S)-4-Carboxy-4-{[1-(19-carboxynonadecanoyl)piperidine-4-carbonyl]amino}butyrylamino)ethoxy]ethoxy}acetylamino)ethoxy]ethoxy}acetyl) [DesaminoHis7,Arg26,Arg34,Lys37]GLP-1-(7-37)] |  | 300 to 800 nM |
| CC[C@H](C)[C@H](NC(=O)[C@H](Cc1ccccc1)NC(=O)[C@H](CCC(=O)O)NC(=O)[C@H](CCCNC(=N)N)NC(=O)[C@H](C)NC(=O)[C@H](C)NC(=O)[C@H](CCC(N)=O)NC(=O)[C@H](CCC(=O)O)NC(=O)[C@H](CCC(=O)O)NC(=O)[C@H](CC(C)C)NC(=O)[C@H](Cc1ccc(O)cc1)NC(=O)[C@H](CO)NC(=O)[C@H](CO)NC(=O)[C@@H](NC(=O)[C@H](CC(=O)O)NC(=O)[C@H](CO)NC(=O)[C@@H](NC(=O)[C@H](Cc1ccccc1)NC(=O)[C@@H](NC(=O)CNC(=O)[C@H](CCC(=O)O)NC(=O)C(C)(C)NC(=O)[C@@H](N)Cc1c[nH]cn1)[C@@H](C)O)[C@@H](C)O)C(C)C)C(=O)N[C@@H](C)C(=O)N[C@@H](Cc1c[nH]c2ccccc12)C(=O)N[C@@H](CC(C)C)C(=O)N[C@H](C(=O)N[C@@H](CCCNC(=N)N)C(=O)NCC(=O)N[C@@H](CCCNC(=N)N)C(=O)N[C@@H](CCCCNC(=O)COCCOCCNC(=O)COCCOCCNC(=O)CC[C@H](NC(=O)[C@H]1CC[C@H](CNC(=O)CCCCCCCCCCCCCCCCCCC(=O)O)CC1)C(=O)O)C(N)=O)C(C)C [Example 23, N-epsilon37-[2-(2-{2-[2-(2-{2-[(S)-4-Carboxy-4-({trans-4-[(19-carboxy-nonadecanoylamino)methyl]cyclohexanecarbonyl}amino)butyrylamino]ethoxy}ethoxy)acetylamino]ethoxy}ethoxy)acetyl][Aib8,Glu22,Arg26,Arg34,Lys37]GLP-1-(7-37)amide] |  | 800 to 2000 nM |
| CC[C@H](C)[C@H](NC(=O)[C@H](Cc1ccccc1)NC(=O)[C@H](CCC(=O)O)NC(=O)[C@H](CCCNC(=N)N)NC(=O)[C@H](C)NC(=O)[C@H](C)NC(=O)[C@H](CCC(N)=O)NC(=O)[C@H](CCC(=O)O)NC(=O)[C@H](CCC(=O)O)NC(=O)[C@H](CC(C)C)NC(=O)[C@H](Cc1ccc(O)cc1)NC(=O)[C@H](CO)NC(=O)[C@H](CO)NC(=O)[C@@H](NC(=O)[C@H](CC(=O)O)NC(=O)[C@H](CO)NC(=O)[C@@H](NC(=O)[C@H](Cc1ccccc1)NC(=O)[C@@H](NC(=O)CNC(=O)[C@H](CCC(=O)O)NC(=O)[C@H](C)NC(=O)CCc1c[nH]cn1)[C@@H](C)O)[C@@H](C)O)C(C)C)C(=O)N[C@@H](C)C(=O)N[C@@H](Cc1c[nH]c2ccccc12)C(=O)N[C@@H](CC(C)C)C(=O)N[C@H](C(=O)N[C@@H](CCCNC(=N)N)C(=O)NCC(=O)N[C@@H](CCCNC(=N)N)C(=O)N[C@@H](CCCCNC(=O)COCCOCCNC(=O)COCCOCCNC(=O)C[C@@H](NC(=O)C1CCN(C(=O)CCCCCCCCCCCCCCCCCCC(=O)O)CC1)C(=O)O)C(N)=O)C(C)C [Example 1, N-ε^37{2-[2-(2-{2-[2-((R)-3-carboxy-3-{[1-(19-carboxynonadecanoyl)piperidine-4-carbonyl]amino}propionylamino)ethoxy]ethoxy}acetylamino)ethoxy]ethoxy}acetyl [desaminoHis^7,Glu^22,Arg^26,Arg^34,Lys^37]GLP-1(7-37)amide] |  | 300 to 800 nM |
| CC[C@H](C)[C@H](NC(=O)[C@H](Cc1ccccc1)NC(=O)[C@H](CCC(=O)O)NC(=O)[C@H](CCCNC(=N)N)NC(=O)[C@H](C)NC(=O)[C@H](C)NC(=O)[C@H](CCC(N)=O)NC(=O)[C@H](CCC(=O)O)NC(=O)[C@H](CCC(=O)O)NC(=O)[C@H](CC(C)C)NC(=O)[C@H](Cc1ccc(O)cc1)NC(=O)[C@H](CO)NC(=O)[C@H](CO)NC(=O)[C@@H](NC(=O)[C@H](CC(=O)O)NC(=O)[C@H](CO)NC(=O)[C@@H](NC(=O)[C@H](Cc1ccccc1)NC(=O)[C@@H](NC(=O)CNC(=O)[C@H](CCC(=O)O)NC(=O)C(C)(C)NC(=O)[C@@H](N)Cc1c[nH]cn1)[C@@H](C)O)[C@@H](C)O)C(C)C)C(=O)N[C@@H](CCC(=O)O)C(=O)N[C@@H](Cc1c[nH]c2ccccc12)C(=O)N[C@@H](CC(C)C)C(=O)N[C@H](C(=O)N[C@@H](CCCCN)C(=O)NCC(=O)N[C@@H](CCCNC(=N)N)C(=O)N1CCC[C@H]1C(=O)N[C@@H](CCCCNC(=O)CCOCCOCCOCCOCCOCCOCCOCCOCCOCCOCCOCCOCCNC(=O)CC[C@H](NC(=O)CC[C@H](NC(=O)CCCNC(=O)CCCS(=O)(=O)NC(=O)CCCCCCCCCCCCCCCc1nnn[nH]1)C(=O)O)C(=O)O)C(=O)O)C(C)C [Example 52] (H-H[Aib]EGTFTSDVSSYLEEQAAREFIEWLVKGRPK([PEG12-γGlu-γGlu-GABA-X1])-OH) |  | 300 to 800 nM |
| CC[C@H](C)[C@H](NC(=O)[C@H](Cc1cccc(C(F)(F)F)c1)NC(=O)[C@H](CCC(=O)O)NC(=O)[C@H](CCCNC(=N)N)NC(=O)[C@H](C)NC(=O)[C@H](C)NC(=O)[C@H](CCC(N)=O)NC(=O)[C@H](CCC(=O)O)NC(=O)[C@H](CCC(=O)O)NC(=O)[C@H](CC(C)C)NC(=O)[C@H](Cc1ccc(O)cc1)NC(=O)[C@H](CO)NC(=O)[C@H](CO)NC(=O)[C@@H](NC(=O)[C@H](CC(=O)O)NC(=O)[C@H](CO)NC(=O)[C@@H](NC(=O)[C@H](Cc1ccccc1)NC(=O)[C@@H](NC(=O)CNC(=O)[C@H](CCC(=O)O)NC(=O)[C@H](C)NC(=O)CCc1c[nH]cn1)[C@@H](C)O)[C@@H](C)O)C(C)C)C(=O)N[C@@H](C)C(=O)N[C@@H](Cc1c[nH]c2ccccc12)C(=O)N[C@@H](CC(C)C)C(=O)N[C@H](C(=O)N[C@@H](CCCNC(=N)N)C(=O)NCC(=O)N[C@@H](CCCNC(=N)N)C(=O)N[C@@H](CCCCNC(=O)COCCOCCNC(=O)COCCOCCNC(=O)C[C@@H](NC(=O)C1CCN(C(=O)CCCCCCCCCCCCCCCCC(=O)O)CC1)C(=O)O)C(N)=O)C(C)C [Example 6, N-epsilon37-[2-(2-[2-(2-[2-(2-((R)-3-[1-(17-Carboxyheptadecanoyl)piperidin-4-ylcarbonylamino]3-carboxypropionylamino)ethoxy)ethoxy]acetylamino)ethoxy]ethoxy)acetyl][DesaminoHis7, Glu22 Arg26, Arg 34, Phe(m-CF3)28]GLP-1-(7-37)amide] | 800 to 2000 nM |  |
